Source: patent US9315531B2, “Titanocene-gold derivatives comprising thiolato ligands” (Research Foundation of the City University of New York, priority 2014, dated 2016)

What was measured:
[1] = test system: Caki-1; test: Cell viability assay (XTT), Caki-1; format: cell-based, human; conditions: 72 h incubation
From the text: (§1) Cell Culture: Human renal cell carcinoma lines A498, Caki-1 and UO31, as well as the human prostate carcinoma cell lines DU145 and PC3 were newly obtained for these studies from the American Type Culture Collection (ATCC) (Manassas, Va., USA) and cultured in Roswell Park Memorial Institute (RPMI-1640) (Mediatech Inc., Manassas, Va.) media containing 10% fetal bovine serum (FBS, Life Technologies, Grand Island, N.Y.), 1% Minimum Essential Media (MEM) nonessential amino acids (NEAA, Mediatech) and 1% penicillin-streptomycin (PenStrep, Mediatech). HEK-293T cells were newly purchased from ATCC (Manassas, Va., USA) and maintained in Dulbecco's modified Eagle's medium (DMEM) (Mediatech) supplemented with 10% FBS, 1% NEAA and 1% PenStrep. Normal human renal epithelial cells (RPTC) were purchased from Lifeline Cell Technology (Lifeline Cell Technology, Frederick, Md., USA) and maintained in Lifeline's Renal Life Medium from Lifeline Cell Technology supplemented with 2.4 mM L-glutamine, 5 μg/mL rh insulin, 1.0 nM epinephrine, 10 nM triiodothyronine, 0.1 μg/mL hydrocortisone hemisuccinate, 10 ng/mL rhEGF, 0.50% FBS, 5 μg/mL transferrin PS. All cells were cultured at 37° C. and 5% CO2 in a humidified incubator.
The optical absorbance of each well in a 96-well plate was quantified using BioTek ELx808 absorbance microplate reader (BioTek Winooski, Vt.) set at 450 nm wavelength. The percentage of surviving cells was calculated from the ratio of absorbance of treated to untreated cells.

[2] = test system: HEK-293T; test: Cell viability assay (XTT), HEK-293T; format: cell-based; conditions: 72 h incubation; non-tumorigenic human embryonic kidney cell line
Procedure: HEK-293T cells were newly purchased from ATCC (Manassas, Va., USA) and maintained in Dulbecco's modified Eagle's medium (DMEM) (Mediatech) supplemented with 10% FBS, 1% NEAA and 1% PenStrep. […] All cells were cultured at 37° C. and 5% CO2 in a humidified incubator.

[3] = test system: RPTC; test: Cell viability assay (XTT), RPTC; format: cell-based; conditions: 72 h incubation; human renal proximal tubular cells
From the text: as §1
Cell Viability Assay: Cells were seeded at a concentration of 5000 cells/90 μl per well of either RPMI or DMEM without phenol red and without antibiotics, supplemented with 10% FBS and 2 mM L-glutamine into tissue culture grade 96-well flat bottom microplates (BioLite Microwell Plate, Fisher Scientific, Waltham, Mass., USA) and grown for 24 h at 37° C. in a humidified incubator. Afterwards, the intermediate dilutions of the compounds were added to the wells (10 μL) to obtain a final concentration ranging from 0.1 to 200 μM, and the cells were incubated for 24 h or 72 h. […] The optical absorbance of each well in a 96-well plate was quantified using BioTek ELx808 absorbance microplate reader (BioTek Winooski, Vt.) set at 450 nm wavelength. The percentage of surviving cells was calculated from the ratio of absorbance of treated to untreated cells.

[4] = Stability in solution (DMSO-d6, CDCl3, DMSO/PBS); format: physicochemical
From the text: (§2) Both compound 2 and compound 3 were less acidic than titanocene dichloride and were soluble in DMSO/water, DMSO/PBS and DMSO/media (1:99) mixtures at micromolar concentrations. These compounds were unusually stable methyl-containing titanocene moieties that were stable as solids at room temperature, while exposed to air in CDCl3 solution for at least five days.

[5] = Solubility in DMSO/aqueous mixtures; format: physicochemical; conditions: at micromolar concentrations
From the text: as §2

[6] = test system: plasmid pBR322 DNA; test: Electrophoresis mobility shift assay; format: binding; conditions: metal/DNAbp ratios 0.25-2.0, 37° C., 20 h
Procedure: Agarose gel electrophoresis assays were performed whereby decreased electrophoretic mobility of both forms were taken as evidence of metal-DNA binding.
Mobility Shift Assay: 10 μL aliquots of pBR322 plasmid DNA (20 μg/mL) in buffer (5 mM Tris/HCl, 50 mM NaClO4, pH=7.39) were incubated with different concentrations of the compounds (2, 3, 4, 5), and titanocene dichloride) (in the range 0.25 and 4.0 metal complex:DNA bp) at 37° C. for 20 h in the dark. Samples of free DNA and cisplatin-DNA were prepared as controls. After the incubation period, the samples were loaded onto the 1% agarose gel. The samples were separated by electrophoresis for 1.5 h at 80 V in Tris-acetate/EDTA buffer (TAE). Afterwards, the gel was stained for 30 min with a solution of GelRed nucleic acid stain.

[7] = test system: MAPKAPK3; test: Protein kinase expression in Caki-1 whole cell lysates (Western blot), MAPKAPK3; format: cell-based, human; conditions: Caki-1, by 12 hours post-treatment
Procedure: The Caki-1 cells were then lysed and a Western blot analysis was performed with anti-MAPKAPK-3 antibody. Blots were probed with anti-β-Actin antibody as a control for protein loading.
Cell lysis and immunoblotting: Caki-1 cells were seeded into 10-cm dishes at a density of 2.2×10^6 and incubated for 24 hours. […] After microcentrifuging for 5 minutes at 4° C., pellets were treated with ice-cold lysis buffer with cell extraction buffer (BioSource, Camarillo, Calif.) containing 0.1% protease inhibitors and 1% phosphatase inhibitors cocktail (Fisher Scientific, Pittsburgh, Pa.) for 10 minutes, then sonicated for 10 seconds three times, and placed on ice. The lysed cells were centrifuged at 10,000×g at 4° C. for 10 minutes to remove the pellets representing the insoluble cell fraction.
The protein concentration was determined with BCA protein dye reagent (Pierce, Fisher Scientific Pittsburgh, Pa.). […]

[8] = test system: thioredoxin reductase
Procedure: After 5, 12 or 24 hours of treatment incubation cells were washed three times in PBS, and lysed by douncing using scrapers and sheer force though syringe with a 34 gauge needle in assay buffer (Abeam Thioredoxin Reductase Assay kit, ab83463) added to 1 mM protease inhibitor cocktail (Abeam, ab65621). The lysates were centrifuged at 10,000×g for 15 minutes at 4° C. to isolate insoluble material. The total protein concentrations of soluble lysates were measured using the BCA Protein Assay (Life Technologies). The soluble lysates were incubated for 20 minutes in assay buffer with a proprietary thioredoxin reductase specific inhibitor before adding a specific substrate, DTNB (5, 5′-dithiobis(2-nitrobenzoic) acid), and measuring activity at 1 minute intervals for 30 minutes using the BioTek fluorescence microplate reader (BioTek U.S., Winooski, Vt.) set at =412 nm. Lysates were tested in duplicate. TrxR activity was calculated based on the linear amount of TNB produced per minute per mg of total protein and corrected for background activity from enzymes other than TrxR in the lysates.

[9] = target: T1, isolated TrRx (Homo sapiens, UniProt Q16881); conditions: isolated enzyme; read-out: concentration inhibiting 50% of the enzymatic activity of isolated TrRx; cited from earlier work
T1 sequence (Q16881 151-649 limits assumed): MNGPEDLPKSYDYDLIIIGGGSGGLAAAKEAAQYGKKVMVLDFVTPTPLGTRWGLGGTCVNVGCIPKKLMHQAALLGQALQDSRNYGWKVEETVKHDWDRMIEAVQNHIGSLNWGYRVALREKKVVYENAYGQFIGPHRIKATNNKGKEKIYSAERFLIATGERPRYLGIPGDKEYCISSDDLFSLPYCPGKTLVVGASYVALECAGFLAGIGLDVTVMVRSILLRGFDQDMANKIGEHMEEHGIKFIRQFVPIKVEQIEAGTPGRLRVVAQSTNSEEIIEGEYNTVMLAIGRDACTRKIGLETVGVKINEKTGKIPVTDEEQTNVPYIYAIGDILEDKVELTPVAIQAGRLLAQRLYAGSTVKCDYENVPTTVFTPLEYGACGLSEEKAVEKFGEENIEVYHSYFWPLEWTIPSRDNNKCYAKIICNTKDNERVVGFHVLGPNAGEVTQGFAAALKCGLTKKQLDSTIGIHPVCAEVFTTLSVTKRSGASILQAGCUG

[10] = test system: TrRx in human breast MCF-7 cancer cells; conditions: 4 μM; cited from earlier work
[11] = test system: TrRx in human ovarian A2780 cancer cells; conditions: 10 μM; cited from earlier work

Row | Molecule | IC50 [1] [µM] | IC50 [2] [µM] | IC50 [3] [µM] | effect on electrophoretic mobility of plasmid DNA forms [6] | other results
1 | [(η-C5H5)2TiMe(μ-mba)Au(MPPF)] [Compound 3] | 4.11 ± 0.64 | 3.09 ± 0.003 | 3.76 ± 0.21 | did not affect the mobility | half-life in DMSO-d6 ([4]; DMSO-d6): thirty-two; half-life fold larger than corresponding compound 6 / compound 7 ([4]; DMSO-d6, same solvent): sixty-four; UV-vis spectra over time ([4]; micromolar concentration in 1:99 DMSO/PBS, 23 h, physiological pH): did not change over time; solubility in DMSO/water, DMSO/PBS and DMSO/media (1:99) mixtures [5]: soluble
2 | [Cl-].[Cl-].[Ti+4].c1cc[cH-]c1.c1cc[cH-]c1 [[(π-C5H5)2TiCl2], reference compound] | > 200 | > 200 | – | – | –
3 | COc1ccc(C[C]2([Ti+2][C]3(Cc4ccc(OC)cc4)C=CC=C3)C=CC=C2)cc1.[Cl-].[Cl-] [Titanocene Y, reference compound] | 29.4 ± 4.18 | > 200 | – | – | –
4 | [Au(Hmba)(MPPF)] [Precursor 5] | 3.6 ± 0.342 | 3 ± 0.07 | 3.78 ± 0.13 | did not affect the mobility | –
5 | CC(=O)OC[C@H]1O[C@@H]([S-])[C@H](OC(C)=O)[C@@H](OC(C)=O)[C@@H]1OC(C)=O.CCP(CC)CC.[Au+] [Auranofin] | 3.08 ± 0.13 | – | – | – | expression of MAPKAPK3 [7]: failed to down-regulate; inhibition of thioredoxin reductase activity ([8]; Caki-1 cells, 5 μM, five hour incubation): 74.1%; IC50 ([8]; read-out: IC50 thioredoxin reductase in Caki-1 cells, after twelve hours): 0.61 µM; IC50 [9]: 0.02 µM; inhibition of total TrRx activity in MCF-7 cells [10]: 18%; inhibition of total TrRx activity in A2780 cells [11]: 30%
6 | N.N.[Cl][Pt][Cl] [Cisplatin, reference compound] | 29 ± 4.11 | 3.27 ± 0.13 | – | decreased mobility of the CCC form and increased mobility of the OC form | –
